{"source": "patent US11319336B2", "about": "“Ship inhibitors and uses thereof” (The Research Foundation For The State University Of New York, priority 2010, dated 2022)", "key": {"MIR cell numbers": {"system": "MIR cell numbers", "assay": "MIR cell induction in treated mice", "format": "in vivo", "conditions": "FIG. 6C, D", "procedure": "(§1) [Noto bene: DRV-IV-26=3A5AS]\nThe solubility of 3AC was assessed by calculating the distribution coefficient (CLogD). This calculation estimates the CLogD for 3AC at 7.17 indicating the molecule is very lipophilic. Thus, we have begun to develop novel 3AC analogs with increased aqueous solubility. One of these compounds, 3A5AS, has a CLogD of 3.33. Lipinski's rules (a common measure of small molecule pharmacokinetics) recommend a ClogD of <5 for in vivo applications."}, "recombinant SHIP1": {"target": "T1, recombinant SHIP1 (Homo sapiens, UniProt Q92835)", "T1 sequence (Q92835 1-1189)": "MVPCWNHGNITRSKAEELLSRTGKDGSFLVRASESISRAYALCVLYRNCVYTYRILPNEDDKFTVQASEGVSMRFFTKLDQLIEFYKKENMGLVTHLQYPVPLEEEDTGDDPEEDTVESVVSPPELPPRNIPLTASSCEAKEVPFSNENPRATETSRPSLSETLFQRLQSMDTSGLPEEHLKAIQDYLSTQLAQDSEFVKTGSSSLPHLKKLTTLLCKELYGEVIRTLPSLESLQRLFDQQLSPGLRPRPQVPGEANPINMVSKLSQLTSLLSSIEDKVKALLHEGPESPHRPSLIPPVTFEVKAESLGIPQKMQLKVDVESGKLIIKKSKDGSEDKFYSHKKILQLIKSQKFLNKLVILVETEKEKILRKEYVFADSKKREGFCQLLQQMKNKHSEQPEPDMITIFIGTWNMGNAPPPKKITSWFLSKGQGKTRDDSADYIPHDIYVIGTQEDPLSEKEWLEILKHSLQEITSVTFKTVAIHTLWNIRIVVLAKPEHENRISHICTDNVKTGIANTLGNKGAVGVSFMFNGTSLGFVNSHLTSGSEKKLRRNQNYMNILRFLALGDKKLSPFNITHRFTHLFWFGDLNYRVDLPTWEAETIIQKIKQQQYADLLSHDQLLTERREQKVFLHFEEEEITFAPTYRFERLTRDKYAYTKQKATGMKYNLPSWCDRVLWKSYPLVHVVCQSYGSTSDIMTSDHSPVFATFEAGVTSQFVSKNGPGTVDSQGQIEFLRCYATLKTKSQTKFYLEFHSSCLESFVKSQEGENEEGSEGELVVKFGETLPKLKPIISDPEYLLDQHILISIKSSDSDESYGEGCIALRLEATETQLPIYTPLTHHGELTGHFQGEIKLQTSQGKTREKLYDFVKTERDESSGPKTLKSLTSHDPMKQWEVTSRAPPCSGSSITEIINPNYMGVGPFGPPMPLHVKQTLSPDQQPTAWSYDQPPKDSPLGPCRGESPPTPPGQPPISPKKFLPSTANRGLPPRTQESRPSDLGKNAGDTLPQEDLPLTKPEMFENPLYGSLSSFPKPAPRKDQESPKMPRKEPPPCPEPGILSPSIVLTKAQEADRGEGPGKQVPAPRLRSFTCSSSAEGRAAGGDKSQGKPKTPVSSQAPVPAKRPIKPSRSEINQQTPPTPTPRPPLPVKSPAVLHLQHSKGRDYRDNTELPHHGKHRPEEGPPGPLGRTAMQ", "assay": "Malachite Green phosphatase assay for SHIP1 activity against PI(3,4,5)P3 substrate", "format": "biochemical", "procedure": "Absorbance is recorded at 620 nm, smaller numbers indicate a lack of green color and inhibition of the phosphatase.\nas §1"}}, "note": "Entries after “also recorded” stand apart in the source; their conditions may differ."}
{"molecule": "CC(C)CCC[C@@H](C)[C@H]1CC[C@H]2[C@@H]3CCC4C[C@H](N)CC[C@]4(C)[C@H]3CC[C@]12C", "note": "(some centres unmarked) [Example 3AC, reference compound]", "values": [{"measurement": "Concentration inducing a comparable MIR cell increase in vivo", "setting": "MIR cell numbers", "result": 60, "unit": "µM"}]}
{"molecule": "CCN", "note": "[ethylamine]", "values": [{"measurement": "SHIP1 inhibition by lack of green color", "setting": "recombinant SHIP1; SHIP1 malachite phosphatase assay, FIG. 1, visual readout", "result": "poor inhibitor"}]}
{"molecule": "C[C@@]12CCC[C@H]1[C@@H]1CC[C@H]3C[C@H](N)CC[C@]3(C)[C@H]1CC2", "note": "[Example 3A5AS, 3α-amino-5α-androstane]", "values": [{"measurement": "Inhibition of recombinant SHIP1 activity in vitro, compared with 3AC", "setting": "recombinant SHIP1; Malachite Green assay, PI(3,4,5)P3 substrate, FIG. 5B / FIG. 6A", "result": "equal inhibitory activity; also recorded: equally potent"}, {"measurement": "Concentration inducing a comparable MIR cell increase in vivo", "setting": "MIR cell numbers", "result": 15, "unit": "µM"}, {"measurement": "Potency at inducing MIR cell numbers in vivo, compared with 3AC", "setting": "MIR cell numbers", "result": "more potent"}]}
